# Experimental data published in the supplement of paper PMC10307832.
# Assays:
# Assay in all cases: relative viability (nuclei count vs DMSO), 5 days (fraction); higher = more cells survive
# [1] = compound: CCOC(=O)CCNc1cc(N2CCc3ccccc3CC2)nc(-c2ccccn2)n1 [GSK-J4] + CC1(C)CCC(c2ccc(Cl)cc2)=C(CN2CCN(c3ccc(C(=O)NS(=O)(=O)c4ccc(N[C@H](CCN5CCOCC5)CSc5ccccc5)c(S(=O)(=O)C(F)(F)F)c4)cc3)CC2)C1 [Navitoclax] (partner 0.5 µM)
# How it was run: (§1)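 Dosing by pin tool came one day after lung cancer cell lines were seeded in 1536-well plates, using either one drug or a fixed anchor-drug dose plus five library-drug doses (not always all listed) in √10 steps. After 5 days, nuclei were counted on 4× images. Relative viability is treated-well nuclei count divided by vehicle-well nuclei count, and values are medians of duplicate plates.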
# [2] = compound: CCOC(=O)CCNc1cc(N2CCc3ccccc3CC2)nc(-c2ccccn2)n1 [GSK-J4] + N=C(N)NC(=N)NCCc1ccccc1 [Phenformin] (partner 250 µM)
# How it was run: as §1
# [3] = compound: CN1CCC(CC1)OC2=CC(=C(C=C2)NC3=NC=C4C(=N3)N(C(=O)N4C)C5CCCC5)OC [AZ3146] + CCNC(=O)c1noc(-c2cc(C(C)C)c(O)cc2O)c1-c1ccc(CN2CCOCC2)cc1 [Luminespib] (partner 0.01 µM)
# How it was run: as §1
# [4] = compound: CN1CCC(CC1)OC2=CC(=C(C=C2)NC3=NC=C4C(=N3)N(C(=O)N4C)C5CCCC5)OC [AZ3146] + Cc1nc(NC(=O)N2CCC[C@H]2C(N)=O)sc1-c1ccnc(C(C)(C)C(F)(F)F)c1 [Alpelisib] (partner 2 µM)
# How it was run: as §1
Cell Line,relative viability ([1]; first compound 0.5 µM),relative viability ([1]; first compound 1.581 µM),relative viability ([1]; first compound 5 µM),relative viability ([1]; first compound 15.81 µM),relative viability ([1]; first compound 50 µM),relative viability ([2]; first compound 0.5 µM),relative viability ([2]; first compound 1.581 µM),relative viability ([2]; first compound 5 µM),relative viability ([2]; first compound 15.81 µM),relative viability ([2]; first compound 50 µM),relative viability ([3]; first compound 0.08 µM),relative viability ([3]; first compound 0.253 µM),relative viability ([3]; first compound 0.8 µM),relative viability ([3]; first compound 2.53 µM),relative viability ([3]; first compound 8 µM),relative viability ([4]; first compound 0.08 µM),relative viability ([4]; first compound 0.253 µM),relative viability ([4]; first compound 0.8 µM),relative viability ([4]; first compound 2.53 µM),relative viability ([4]; first compound 8 µM)
NCI-H1755,0.978,0.888,0.975,0.955,0.96,0.606,0.5,0.367,0.49,0.56,0.415,0.365,0.537,0.966,0.696,0.919,0.989,0.848,0.953,0.917
NCI-H1792,0.621,0.571,0.574,0.567,0.514,0.267,0.258,0.185,0.529,0.318,0.345,0.478,0.571,0.435,0.431,0.577,0.75,0.762,0.667,0.718
NCI-H1793,0.389,0.473,0.379,0.307,0.273,0.446,0.29,0.281,0.294,0.228,0.208,0.173,0.202,0.145,0.178,0.578,0.743,0.758,0.779,0.624
NCI-H1915,0.759,0.713,0.747,0.715,0.765,0.36,0.327,,0.369,0.388,0.717,0.888,0.913,0.875,0.919,0.978,1,1,1.06,1.04
NCI-H1944,1.06,0.953,1.15,0.913,1,0.2,0.193,0.124,0.155,0.174,0.617,0.786,0.777,0.906,1.06,,0.845,0.991,0.825,0.861
NCI-H1975,1.05,1.11,,1.04,1.15,0.415,0.417,0.288,0.36,0.428,0.215,0.173,0.162,0.204,0.257,0.658,0.627,0.671,0.616,0.301
NCI-H1993,1.14,0.951,1.13,0.866,0.681,0.476,0.545,0.555,0.548,0.456,0.86,0.92,0.911,1.06,1.02,0.785,0.713,0.61,0.666,0.662
NCI-H2009,1.14,1.12,0.951,1.14,0.882,0.456,0.419,0.354,0.341,0.222,0.996,1.06,0.973,1.06,0.999,1.1,1.17,1.19,1.24,1.05
NCI-H2023,0.921,0.976,1.08,0.991,0.915,0.441,,0.395,0.35,0.342,0.657,0.774,0.78,0.593,0.153,0.593,0.499,0.642,0.608,0.463
NCI-H2085,0.971,1.12,1.13,1.09,0.999,0.724,0.674,0.671,0.508,0.582,0.417,0.416,0.394,0.427,0.608,0.993,0.947,0.94,0.99,0.808
NCI-H2087,0.795,1.08,,0.99,0.758,0.466,,0.541,0.452,0.456,0.232,0.182,0.217,0.209,0.199,1.03,1.04,1.19,1.11,0.953
NCI-H2126,0.823,0.842,0.849,0.72,0.709,0.537,0.505,0.55,0.485,0.456,0.882,0.942,0.919,0.919,0.767,0.683,0.705,0.757,0.724,0.731
NCI-H2170,0.585,0.547,0.678,0.44,0.48,0.38,0.352,0.341,0.387,0.275,0.703,0.827,0.755,0.576,0.616,0.72,0.767,0.82,0.794,0.733
NCI-H2228,1.1,0.868,1.07,0.8,0.871,0.331,0.205,0.42,0.244,0.355,0.133,0.149,0.162,0.145,0.146,0.694,0.812,0.679,0.705,0.603
NCI-H2347,0.7,0.746,0.774,0.829,0.608,0.324,0.384,0.507,,0.499,0.375,0.298,0.551,0.53,0.644,0.944,1.01,0.708,1.1,1.04
NCI-H2405,0.835,0.848,,0.952,0.928,0.442,0.386,,0.335,0.366,0.923,0.704,0.967,0.756,0.914,0.891,,0.789,0.829,0.76
